Source: patent US20230131899A1, “INHIBITORS OF MICROBIALLY INDUCED AMYLOID” (Axial Therapeutics, Inc., priority 2020, published 2023)
pIC50: −log10 of the molar value. Where two headings read alike, the source gives them in different places.

Test system: CsgA gene expression (csgBAC promoter-GFP reporter) in E. coli UTI89
Assay: In vitro live cell fluorescent reporter assay of CsgA transcription (Reporter Assay)
Format: cell-based
Conditions: for IC50: read-out: Reporter Assay Abs IC50 (μM), median Abs IC50 in the CsgA reporter assay
Summary of the method: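 Chromosomal single-copy csgBAC promoter–GFP reporter in E. coli UTI89, started at OD600 0.003 in YESCA broth with compound (0.14–100 μM, 1% DMSO), 20 h at 27 °C. GFP (ex 485/em 525 nm) background-subtracted and normalized to vehicle; IC50 and X[50] from curve fits. OD600 tracked growth effects.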

[1] = Escherichia coli, N/A = maximum expression reduction is <50% of control
[2] = Escherichia coli, read-out: Reporter Assay Abs IC50, activity range, class symbol
[3] = Escherichia coli, read-out: Reporter Assay Abs IC50 (activity range), median Abs IC50 in the CsgA reporter assay, class symbol

Row | Compound | IC50 [1] | pIC50 [2] | pIC50 [3] | pIC50 (read-out: Reporter Assay Abs IC50 (activity range), median Abs IC50 in the CsgA reporter assay, class symbol) | pIC50 (read-out: Reporter Assay Abs IC50, median Abs IC50 in the CsgA reporter assay, N/A = maximum expression reduction is <50% of control)
1 | O=C(O)C1CN(Cc2ccccc2)c2c(-c3cccc(C(F)(F)F)c3)c(Cc3cccc4ccccc34)c(Br)c(=O)n21 (centres unmarked) [Compound 003, 1-benzyl-6-bromo-7-(naphthalen-1-ylmethyl)-5-oxo-8-(3-(trifluoromethyl)phenyl)-1,2,3,5-tetrahydroimidazo[1,2-a]pyridine-3-carboxylic acid] | 0.8 µM | > 5.89 |  |  | 
2 | CCCN1CC(C(=O)O)n2c(c(-c3cccc(C(F)(F)F)c3)c(Cc3cccc4ccccc34)c(NC(=O)CC)c2=O)S1(=O)=O (centres unmarked) [Compound 153, 8-(naphthalen-1-ylmethyl)-6-oxo-7-propionamido-2-propyl-9-(3-(trifluoromethyl)phenyl)-3,4-dihydro-2H,6H-pyrido[1,2-e][1,2,5]thiadiazine-4-carboxylic acid 1,1-dioxide] | 16.6 µM | < 5.00 |  |  | 
3 | CCCCN1CC(C(=O)O)n2c1c(-c1cccc(C(F)(F)F)c1)c(Cc1cccc3ccccc13)c(Cl)c2=O (centres unmarked) [Compound 163, 1-butyl-6-chloro-7-(naphthalen-1-ylmethyl)-5-oxo-8-(3-(trifluoromethyl)phenyl)-1,2,3,5-tetrahydroimidazo[1,2-a]pyridine-3-carboxylic acid] | 1.2 µM | > 5.89 |  |  | 
4 | NC(=O)c1c(Cc2cccc3ccccc23)c(-c2cccc(C(F)(F)F)c2)c2n(c1=O)C(C(=O)O)CN(CCCO)S2(=O)=O (centres unmarked) [Compound 184, 7-carbamoyl-2-(3-hydroxypropyl)-8-(naphthalen-1-ylmethyl)-6-oxo-9-(3-(trifluoromethyl)phenyl)-3,4-dihydro-2H,6H-pyrido[1,2-e][1,2,5]thiadiazine-4-carboxylic acid 1,1-dioxide] | 2.7 µM | 5.35 to 5.89 |  |  | 
5 | O=C(O)c1c(CCc2ccccc2)sc2c(-c3cccc(C(F)(F)F)c3)c(Cc3cccc4ccccc34)cc(=O)n12 [Compound 062, 7-(naphthalen-1-ylmethyl)-5-oxo-2-phenethyl-8-(3-(trifluoromethyl)phenyl)-5H-thiazolo[3,2-a]pyridine-3-carboxylic acid] | 0.9 µM |  | > 5.89 |  | 
6 | CCCN1CC(C(=O)O)n2c1c(-c1cccc(C(F)(F)F)c1)c(Cc1cccc3ccccc13)c(Cl)c2=O (centres unmarked) [Compound 162, 6-chloro-7-(naphthalen-1-ylmethyl)-5-oxo-1-propyl-8-(3-(trifluoromethyl)phenyl)-1,2,3,5-tetrahydroimidazo[1,2-a]pyridine-3-carboxylic acid] | 1.1 µM | > 5.89 |  |  | 
7 | CN1CC(C(=O)O)n2c(c(-c3cccc(C(F)(F)F)c3)c(Cc3cccc4ccccc34)c(C(=O)NC(C)(C)C)c2=O)S1(=O)=O (centres unmarked) [Compound 158, 7-(tert-butylcarbamoyl)-2-methyl-8-(naphthalen-1-ylmethyl)-6-oxo-9-(3-(trifluoromethyl)phenyl)-3,4-dihydro-2H,6H-pyrido[1,2-e][1,2,5]thiadiazine-4-carboxylic acid 1,1-dioxide] | 1.7 µM | 5.35 to 5.89 |  |  | 
8 | O=C(O)C1CN(Cc2cccc3ccccc23)c2c(-c3cccc(C(F)(F)F)c3)c(Cc3cccc4ccccc34)c(Cl)c(=O)n21 (centres unmarked) [Compound 200, 6-chloro-1,7-bis(naphthalen-1-ylmethyl)-5-oxo-8-(3-(trifluoromethyl)phenyl)-1,2,3,5-tetrahydroimidazo[1,2-a]pyridine-3-carboxylic acid] | 1.3 µM | 5.35 to 5.89 |  |  | 
9 | O=C(O)C1CN(Cc2ccccc2)c2c(-c3cccc(C(F)(F)F)c3)c(Cc3cccc4ccccc34)c(F)c(=O)n21 (centres unmarked) [Compound 194, 1-benzyl-6-fluoro-7-(naphthalen-1-ylmethyl)-5-oxo-8-(3-(trifluoromethyl)phenyl)-1,2,3,5-tetrahydroimidazo[1,2-a]pyridine-3-carboxylic acid] | 1.4 µM | 5.35 to 5.89 |  |  | 
10 | Nc1c(Cc2ccc(N)c3ccccc23)c(-c2cccc(C(F)(F)F)c2)c2n(c1=O)C(C(=O)O)CNS2(=O)=O (centres unmarked) [Compound 041] | 20.2 µM |  | < 5.00 |  | 
11 | O=C(O)C1CN(Cc2ccccc2)c2c(-c3cccc(C(F)(F)F)c3)c(Cc3cccc4ccccc34)c(Cl)c(=O)n21 (centres unmarked) [Compound 004, 1-benzyl-6-chloro-7-(naphthalen-1-ylmethyl)-5-oxo-8-(3-(trifluoromethyl)phenyl)-1,2,3,5-tetrahydroimidazo[1,2-a]pyridine-3-carboxylic acid] | 0.7 µM | > 5.89 |  |  | 
12 | CCCNC(=O)c1c(Cc2cccc3ccccc23)c(-c2cccc(C(F)(F)F)c2)c2n(c1=O)C(C(=O)O)CN(C)S2(=O)=O (centres unmarked) [Compound 154, 2-methyl-8-(naphthalen-1-ylmethyl)-6-oxo-7-(propylcarbamoyl)-9-(3-(trifluoromethyl)phenyl)-3,4-dihydro-2H,6H-pyrido[1,2-e][1,2,5]thiadiazine-4-carboxylic acid 1,1-dioxide] | 6.1 µM | 5.00 to 5.34 |  |  | 
13 | CN(C)C(=O)c1c(Cc2cccc3ccccc23)c(-c2cccc(C(F)(F)F)c2)c2n(c1=O)C(C(=O)O)CN(C)S2(=O)=O (centres unmarked) [Compound 173, 7-(dimethylcarbamoyl)-2-methyl-8-(naphthalen-1-ylmethyl)-6-oxo-9-(3-(trifluoromethyl)phenyl)-3,4-dihydro-2H,6H-pyrido[1,2-e] [1,2,5] thiadiazine-4-carboxylic acid 1,1-dioxide] | 6.7 µM | 5.00 to 5.34 |  |  | 
14 | CCCN1CC(C(=O)O)n2c(c(-c3cccc(C(F)(F)F)c3)c(Cc3cccc4ccccc34)c(OCC)c2=O)S1(=O)=O (centres unmarked) [Compound 143, 7-ethoxy-8-(naphthalen-1-ylmethyl)-6-oxo-2-propyl-9-(3-(trifluoromethyl)phenyl)-3,4-dihydro-2H,6H-pyrido[1,2-e][1,2,5]thiadiazine-4-carboxylic acid 1,1-dioxide] | 5.2 µM | 5.00 to 5.34 |  |  | 
15 | O=C(O)C1CN(C[C@H](O)CO)S(=O)(=O)c2c(-c3cccc(C(F)(F)F)c3)c(Cc3cccc4ccccc34)cc(=O)n21 (stereo partly drawn) [Compound 065a, 2-((S)-2,3-dihydroxypropyl)-8-(naphthalen-1-ylmethyl)-6-oxo-9-(3-(trifluoromethyl)phenyl)-3,4-dihydro-2H,6H-pyrido[1,2-e][1,2,5]thiadiazine-4-carboxylic acid 1,1-dioxide] | 24.5 µM |  | < 5.00 |  | 
16 | CCCN1CC(C(=O)O)n2c(c(-c3cccc(C(F)(F)F)c3)c(Cc3cccc4ccccc34)c(C(N)=O)c2=O)S1(=O)=O (centres unmarked) [Compound 172, 7-carbamoyl-8-(naphthalen-1-ylmethyl)-6-oxo-2-propyl-9-(3-(trifluoromethyl)phenyl)-3,4-dihydro-2H,6H-pyrido[1,2-e][1,2,5]thiadiazine-4-carboxylic acid 1,1-dioxide] | 4.2 µM | 5.35 to 5.89 |  |  | 
17 | Cn1c(=O)c2c(nc(CCCCCCN3CC(C(=O)O)n4c(c(-c5cccc(C(F)(F)F)c5)c(Cc5cccc6ccccc56)cc4=O)S3(=O)=O)n2C)n(C)c1=O (centres unmarked) [Compound 046, 8-(naphthalen-1-ylmethyl)-6-oxo-9-(3-(trifluoromethyl)phenyl)-2-(6-(1,3,7-trimethyl-2,6-dioxo-2,3,6,7-tetrahydro-1H-purin-8-yl)hexyl)-3,4-dihydro-2H,6H-pyrido[1,2-e][1,2,5]thiadiazine-4-carboxylic acid 1,1-dioxide] | 1.6 µM |  | 5.35 to 5.89 |  | 
18 | CN1CC(C(=O)O)n2c(c(-c3cccc(C(F)(F)F)c3)c(Cc3cccc4ccccc34)c(C(=O)N3CCOCC3)c2=O)S1(=O)=O (centres unmarked) [Compound 160, 2-methyl-7-(morpholine-4-carbonyl)-8-(naphthalen-1-ylmethyl)-6-oxo-9-(3-(trifluoromethyl)phenyl)-3,4-dihydro-2H,6H-pyrido[1,2-e][1,2,5] thiadiazine-4-carboxylic acid 1,1-dioxide] | 65.8 µM | < 5.00 |  |  | 
19 | Cn1c(=O)c2c(ncn2CCCCCCCN2CC(C(=O)O)n3c(c(-c4cccc(C(F)(F)F)c4)c(Cc4cccc5ccccc45)cc3=O)S2(=O)=O)n(C)c1=O (centres unmarked) [Compound 036] | 1.6 µM |  | 5.35 to 5.89 |  | 
20 | CCCN1CC(C(=O)O)n2c(c(-c3cccc(C(F)(F)F)c3)c(Cc3cccc4ccccc34)cc2=O)S1(=O)=O (single isomer, unassigned) [Compound 016b, 8-(naphthalen-1-ylmethyl)-6-oxo-2-propyl-9-(3-(trifluoromethyl)phenyl)-3,4-dihydro-2H,6H-pyrido[1,2-e][1,2,5]thiadiazine-4-carboxylic acid 1,1-dioxide] |  |  |  | 5.00 to 5.34 | 5.18
21 | O=C(O)C1CN(CC2CCCCC2)c2c(-c3cccc(C(F)(F)F)c3)c(Cc3cccc4ccccc34)c(Cl)c(=O)n21 (centres unmarked) [Compound 180, 6-chloro-1-(cyclohexylmethyl)-7-(naphthalen-1-ylmethyl)-5-oxo-8-(3-(trifluoromethyl)phenyl)-1,2,3,5-tetrahydroimidazo[1,2-a]pyridine-3-carboxylic acid] | 0.5 µM | > 5.89 |  |  | 
22 | O=C(O)c1c(-c2ccccc2)sc2c(-c3cccc(C(F)(F)F)c3)c(Cc3cccc4ccccc34)cc(=O)n12 [Compound 051, 7-(naphthalen-1-ylmethyl)-5-oxo-2-phenyl-8-(3-(trifluoromethyl)phenyl)-5H-thiazolo[3,2-a]pyridine-3-carboxylic acid] | 1 µM |  | > 5.89 |  | 
